pEC50: −log10 of the molar value. Like-named read-outs stand apart in the source and are kept apart here.
Tests used:
[1] = molecular target: GAL4 DBD-CfEcR(DEF)/VP16AD-MmRXRE (Choristoneura fumiferana, UniProt O77240); test: 13B3 Assay (CHO stable cell line, luciferase reporter); settings: for 13B3 assay Rel Max FI: maximum fold induction at any concentration relative to that of GS-E ligand, CHO 13B3 cells
In short: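 CHO 13B3 clone stably expressing GAL4 DBD–CfEcR(DEF) and VP16AD–MmRXR(DE) with GAL4 RE–luciferase reporter; cells plated 24 h at 37 °C, then treated with ligands (DMSO stocks diluted 300-fold), 8 concentrations 33–0.01 μM.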

[2] = molecular target: T1, Bombyx mori EcR (VP16 fusion, CVBE switch construct) (Bombyx mori, UniProt P49881); test: Z3 Assay (HEK-293 cells with CVBE and 6XEcRE LacZ, β-galactosidase reporter); settings: for Z3 assay Rel Max FI: maximum fold induction at any concentration relative to that of GS-E ligand
T1 sequence (P49881 86-606): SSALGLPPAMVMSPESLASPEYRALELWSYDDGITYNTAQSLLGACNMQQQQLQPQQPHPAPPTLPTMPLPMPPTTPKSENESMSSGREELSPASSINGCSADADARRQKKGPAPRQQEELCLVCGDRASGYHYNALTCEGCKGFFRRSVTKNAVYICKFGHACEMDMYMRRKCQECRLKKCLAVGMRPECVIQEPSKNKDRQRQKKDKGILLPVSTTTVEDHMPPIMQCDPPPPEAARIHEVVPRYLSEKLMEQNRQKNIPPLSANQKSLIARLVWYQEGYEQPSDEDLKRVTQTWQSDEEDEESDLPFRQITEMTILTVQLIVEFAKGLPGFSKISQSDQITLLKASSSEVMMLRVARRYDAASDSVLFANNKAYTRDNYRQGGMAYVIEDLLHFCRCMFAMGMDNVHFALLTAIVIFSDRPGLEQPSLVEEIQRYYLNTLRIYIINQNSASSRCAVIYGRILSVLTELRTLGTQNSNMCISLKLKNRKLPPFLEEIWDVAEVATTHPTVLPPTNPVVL
T1 sequence (P19793 1-462 partner): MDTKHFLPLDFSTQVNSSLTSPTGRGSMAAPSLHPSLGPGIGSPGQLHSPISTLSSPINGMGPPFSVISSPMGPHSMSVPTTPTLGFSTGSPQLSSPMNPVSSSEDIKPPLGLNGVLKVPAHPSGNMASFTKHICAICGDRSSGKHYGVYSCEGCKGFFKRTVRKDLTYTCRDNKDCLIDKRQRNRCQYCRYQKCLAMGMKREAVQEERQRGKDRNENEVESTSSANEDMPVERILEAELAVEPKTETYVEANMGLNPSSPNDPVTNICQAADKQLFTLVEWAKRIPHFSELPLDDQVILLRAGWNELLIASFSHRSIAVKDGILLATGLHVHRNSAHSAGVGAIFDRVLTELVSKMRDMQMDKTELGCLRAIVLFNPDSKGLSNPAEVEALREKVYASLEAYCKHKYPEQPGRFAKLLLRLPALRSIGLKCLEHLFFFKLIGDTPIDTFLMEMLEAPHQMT

| SMILES | Fold Induction, 13B3 Assay, 3.3 uM ([1]; 3.3 uM ligand, RLU ligand treated / RLU DMSO treated cells, average of two wells) | Fold Induction, 13B3 Assay, 33 uM ([1]; 33 uM ligand, RLU ligand treated / RLU DMSO treated cells, average of two wells) | 13B3 assay Rel Max FI [1] | pEC50 ([1]; read-out: 13B3 EC50, CHO 13B3 stable cell line, luciferase reporter, 48 h, average of two wells) | Fold Induction, Z3 Assay, 3.3 uM ([2]; 3.3 uM ligand, ligand treated / DMSO treated cells, average of two wells) | Fold Induction, Z3 Assay, 33 uM ([2]; 33 uM ligand, ligand treated / DMSO treated cells, average of two wells) | Z3 assay Rel Max FI ([2]; HEK-293 Z3 cells) | pEC50 ([2]; read-out: Z3 assay EC50, HEK-293 Z3 cells, β-galactosidase reporter, average of two wells) | pEC50 [1] | fold induction at 3.3 µM ([1]; read-out: Fold Induction, 13B3 Assay, 3.3 uM) | pEC50 [2] | fold induction at 3.3 µM ([2]; HEK293, read-out: Fold Induction, Z3 Assay, 3.3 uM) | fold induction at 33 µM ([2]; HEK293, read-out: Fold Induction, Z3 Assay, 33 uM) |
| --- | --- | --- | --- | --- | --- | --- | --- | --- | --- | --- | --- | --- | --- |
| Cc1ccc([N+](=O)[O-])c(C(=O)N(NC(=O)c2ccc3c(c2C)CCCO3)C(C)(C)C)c1 [RG-115664] | 1363 | 333 | 0.497 | 6.49 | 209 | 620 | 0.846 | 6.90 | – | – | – | – | – |
| CCc1c(OC)cccc1C(=O)NN(C(=O)c1cc(C)cc(C)c1)C(C)(C)CO[Si](C)(C)C(C)(C)C [RG-115665, 2-ethyl-3-methoxy-benzoic acid N′-[2-(tert-butyl-dimethyl-silanyloxy)-1,1-dimethyl-ethyl]-N′-(3,5-dimethyl-benzoyl)-hydrazide] | – | – | 0 | – | – | – | 0.09 | – | < 4.30 | 1 | 4.91 | 6 | 74 |

— patent publication US9102648B1, “Bioavailable diacylhydrazine ligands for modulating the expression of exogenous genes via an ecdysone receptor complex” (Intrexon Corporation, priority 2003, dated 2015)
